In the Kinase Knowledgebase extract (Sharma et al. 2016):

Assays:
PIK3CD (Human) = PIK3CD (Human) (UniProt O00329); experiment: Cell-Based Assay; settings: raji
PIK3CB (Human) = PIK3CB (Human) (UniProt P42338); experiment: Enzyme Assay
PIK3CG (human) = PIK3CG (human) (UniProt P48736); experiment: Enzyme Assay
Chain of PIK3CG (human) (P48736 whole entry, looked up): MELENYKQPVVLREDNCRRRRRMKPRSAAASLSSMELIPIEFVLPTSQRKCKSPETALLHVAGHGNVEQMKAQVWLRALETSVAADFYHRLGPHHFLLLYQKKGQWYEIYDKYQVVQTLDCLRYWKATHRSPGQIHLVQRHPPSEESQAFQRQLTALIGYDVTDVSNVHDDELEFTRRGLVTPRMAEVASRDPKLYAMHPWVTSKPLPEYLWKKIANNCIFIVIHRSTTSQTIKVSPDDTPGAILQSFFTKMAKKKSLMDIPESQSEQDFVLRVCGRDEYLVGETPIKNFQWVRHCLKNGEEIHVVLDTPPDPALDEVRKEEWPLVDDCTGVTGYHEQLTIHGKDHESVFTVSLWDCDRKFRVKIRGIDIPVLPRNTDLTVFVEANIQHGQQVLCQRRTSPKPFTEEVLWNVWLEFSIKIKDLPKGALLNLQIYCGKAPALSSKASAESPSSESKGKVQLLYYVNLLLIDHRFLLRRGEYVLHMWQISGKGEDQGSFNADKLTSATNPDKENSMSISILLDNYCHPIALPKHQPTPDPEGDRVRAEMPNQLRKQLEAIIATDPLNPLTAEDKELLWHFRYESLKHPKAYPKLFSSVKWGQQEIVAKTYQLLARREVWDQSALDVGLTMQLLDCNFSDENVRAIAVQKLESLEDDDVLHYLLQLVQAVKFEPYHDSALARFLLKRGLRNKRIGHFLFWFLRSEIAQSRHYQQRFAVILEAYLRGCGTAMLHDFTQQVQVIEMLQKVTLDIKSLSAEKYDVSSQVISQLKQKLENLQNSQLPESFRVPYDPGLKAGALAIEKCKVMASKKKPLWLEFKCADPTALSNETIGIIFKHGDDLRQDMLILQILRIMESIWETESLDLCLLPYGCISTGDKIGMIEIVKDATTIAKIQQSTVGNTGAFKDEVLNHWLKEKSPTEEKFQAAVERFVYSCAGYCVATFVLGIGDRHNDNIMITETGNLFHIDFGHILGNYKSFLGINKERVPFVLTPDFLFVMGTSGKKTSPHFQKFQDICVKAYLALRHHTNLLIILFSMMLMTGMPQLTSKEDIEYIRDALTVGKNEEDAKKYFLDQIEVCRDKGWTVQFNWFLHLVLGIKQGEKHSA

Chain of PIK3CD (Human) (O00329 whole entry, looked up): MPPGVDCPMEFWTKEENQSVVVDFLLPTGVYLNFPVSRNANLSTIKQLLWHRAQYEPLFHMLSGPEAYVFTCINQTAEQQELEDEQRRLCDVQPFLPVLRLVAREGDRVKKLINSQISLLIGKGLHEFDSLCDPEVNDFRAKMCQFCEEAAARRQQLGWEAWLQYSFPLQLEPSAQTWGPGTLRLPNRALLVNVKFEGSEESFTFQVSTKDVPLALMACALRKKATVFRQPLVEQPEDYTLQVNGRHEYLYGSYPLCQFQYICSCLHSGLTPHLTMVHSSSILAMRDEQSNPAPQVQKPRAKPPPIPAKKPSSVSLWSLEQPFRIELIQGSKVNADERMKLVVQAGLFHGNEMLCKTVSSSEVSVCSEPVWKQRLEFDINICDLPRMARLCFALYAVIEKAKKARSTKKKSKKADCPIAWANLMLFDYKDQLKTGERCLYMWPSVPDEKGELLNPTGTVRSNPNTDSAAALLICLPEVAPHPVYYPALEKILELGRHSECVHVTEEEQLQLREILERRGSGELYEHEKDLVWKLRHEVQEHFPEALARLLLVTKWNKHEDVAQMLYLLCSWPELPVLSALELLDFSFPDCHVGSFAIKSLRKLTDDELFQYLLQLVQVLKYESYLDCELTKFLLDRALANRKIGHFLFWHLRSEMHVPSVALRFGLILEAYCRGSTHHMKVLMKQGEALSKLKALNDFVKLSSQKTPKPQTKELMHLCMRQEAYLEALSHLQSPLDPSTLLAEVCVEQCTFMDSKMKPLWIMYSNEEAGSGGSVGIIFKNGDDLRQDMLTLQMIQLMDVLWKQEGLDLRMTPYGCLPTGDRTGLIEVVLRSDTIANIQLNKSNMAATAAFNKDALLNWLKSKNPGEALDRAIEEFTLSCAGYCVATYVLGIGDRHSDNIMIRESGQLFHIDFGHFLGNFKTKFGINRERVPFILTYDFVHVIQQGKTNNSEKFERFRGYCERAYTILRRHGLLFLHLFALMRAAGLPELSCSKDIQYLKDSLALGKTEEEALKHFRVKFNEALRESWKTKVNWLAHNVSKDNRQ
Chain of PIK3CB (Human) (P42338 whole entry, looked up): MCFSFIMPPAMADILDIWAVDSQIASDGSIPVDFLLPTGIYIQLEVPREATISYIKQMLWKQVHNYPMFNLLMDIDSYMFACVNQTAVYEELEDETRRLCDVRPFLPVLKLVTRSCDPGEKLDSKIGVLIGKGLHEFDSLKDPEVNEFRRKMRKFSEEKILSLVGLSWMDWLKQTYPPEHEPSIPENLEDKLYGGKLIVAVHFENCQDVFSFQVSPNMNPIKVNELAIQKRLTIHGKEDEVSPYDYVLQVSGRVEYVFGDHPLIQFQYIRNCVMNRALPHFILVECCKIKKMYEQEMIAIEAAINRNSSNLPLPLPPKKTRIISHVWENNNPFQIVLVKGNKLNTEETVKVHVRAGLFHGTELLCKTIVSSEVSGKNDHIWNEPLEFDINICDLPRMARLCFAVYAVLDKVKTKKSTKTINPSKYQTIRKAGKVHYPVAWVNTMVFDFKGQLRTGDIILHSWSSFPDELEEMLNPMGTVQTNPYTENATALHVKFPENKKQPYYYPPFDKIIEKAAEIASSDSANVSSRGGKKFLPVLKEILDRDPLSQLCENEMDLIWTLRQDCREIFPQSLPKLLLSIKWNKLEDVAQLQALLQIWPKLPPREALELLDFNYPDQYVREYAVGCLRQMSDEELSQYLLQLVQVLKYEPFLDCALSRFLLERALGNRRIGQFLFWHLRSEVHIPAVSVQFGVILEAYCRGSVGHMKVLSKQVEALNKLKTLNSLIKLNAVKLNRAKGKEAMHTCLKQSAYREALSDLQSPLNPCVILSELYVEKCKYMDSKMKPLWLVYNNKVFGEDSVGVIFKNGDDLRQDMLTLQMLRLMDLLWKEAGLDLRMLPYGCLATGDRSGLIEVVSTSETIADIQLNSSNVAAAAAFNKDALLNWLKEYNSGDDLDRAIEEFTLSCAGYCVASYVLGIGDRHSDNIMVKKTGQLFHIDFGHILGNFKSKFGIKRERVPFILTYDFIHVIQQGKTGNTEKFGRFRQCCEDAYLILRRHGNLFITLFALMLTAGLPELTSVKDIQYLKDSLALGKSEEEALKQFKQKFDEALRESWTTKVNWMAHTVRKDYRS

COc1cc(-c2cccc3nc([C@H](C)NC(=O)c4c(N)nn5cccnc45)n(C4CC4)c(=O)c23)ccn1
IC50 (PIK3CD (Human)): 100 to 1000 nM

COc1cc(-c2cccc3cc([C@H](C)NC(=O)c4c(N)nn5cccnc45)n(C)c(=O)c23)ccn1
IC50 (PIK3CB (Human)): ≥ 10000 nM | IC50 (PIK3CD (Human)): < 100 nM

C[C@H](NC(=O)c1c(N)nn2cccnc12)c1cc2cccc(C#CCNS(C)(=O)=O)c2c(=O)n1-c1ccccc1
IC50 (PIK3CG (human)): 100 to 1000 nM | IC50 (PIK3CD (Human)): 100 to 1000 nM

COc1ncc(-c2cccc3cc([C@H](C)NC(=O)c4c(N)nn5cccnc45)n(-c4ccccc4)c(=O)c23)cn1
IC50 (PIK3CG (human)): 100 to 1000 nM | IC50 (PIK3CD (Human)): < 100 nM

C[C@H](NC(=O)c1cnn2cccnc12)c1cc2cccc(Cl)c2c(=O)n1-c1ccc(F)cc1
IC50 (PIK3CG (human)): 100 to 1000 nM | IC50 (PIK3CD (Human)): 100 to 1000 nM

C[C@H](NC(=O)c1c(N)nn2cccnc12)c1cc2cccc(Cl)c2c(=O)n1C1CCCCC1
IC50 (PIK3CD (Human)): < 100 nM

C[C@H](NC(=O)c1c(N)nn2cccnc12)c1cc2cccc(-c3cccs3)c2c(=O)n1-c1ccccc1
IC50 (PIK3CG (human)): 100 to 1000 nM | IC50 (PIK3CD (Human)): 100 to 1000 nM

C[C@H](NC(=O)c1c(N)nn2cccnc12)c1cc2cccc(C#CCNC(=O)C3CCCCC3)c2c(=O)n1-c1ccccc1
IC50 (PIK3CG (human)): 100 to 1000 nM | IC50 (PIK3CD (Human)): < 100 nM

CC(=O)Nc1ncc(-c2cccc3cc([C@H](C)NC(=O)c4c(N)nn5cccnc45)n(-c4ccccc4)c(=O)c23)s1
IC50 (PIK3CG (human)): 100 to 1000 nM | IC50 (PIK3CB (Human)): ≥ 10000 nM

C[C@H](NC(=O)c1c(N)nn2cccnc12)c1cc2cccc(C#CCNC(=O)[C@H]3CCC(=O)O3)c2c(=O)n1-c1ccccc1
IC50 (PIK3CG (human)): < 100 nM | IC50 (PIK3CD (Human)): < 100 nM

C[C@H](NC(=O)c1c(N)nn2cccnc12)c1c(Br)c2cccc(F)c2c(=O)n1-c1ccccc1
IC50 (PIK3CG (human)): 100 to 1000 nM

CC(=O)NCC#Cc1cccc2cc([C@H](C)NC(=O)c3c(N)nn4cccnc34)n(-c3ccccc3)c(=O)c12
IC50 (PIK3CG (human)): < 100 nM | IC50 (PIK3CD (Human)): < 100 nM

COc1ccc(-c2cnc(N)c(C(=O)N[C@@H](C)c3cc4cccc(Cl)c4c(=O)n3-c3ccccc3)n2)cc1OC
IC50 (PIK3CG (human)): 100 to 1000 nM | IC50 (PIK3CD (Human)): 100 to 1000 nM

CC#Cc1cccc2cc([C@H](C)NC(=O)c3c(N)nn4cccnc34)n(-c3ccccc3)c(=O)c12
IC50 (PIK3CG (human)): < 100 nM | IC50 (PIK3CD (Human)): < 100 nM

COc1cc(-c2cccc3cc([C@H](C)NC(=O)c4c(N)nn5cccnc45)n(-c4ccccc4)c(=O)c23)ccn1
IC50 (PIK3CG (human)): 100 to 1000 nM | IC50 (PIK3CD (Human)): < 100 nM

C[C@H](NC(=O)c1cncc2cccnc12)c1cc2cccc(C(F)(F)F)c2c(=O)n1-c1ccccc1
IC50 (PIK3CD (Human)): < 100 nM

C[C@H](NC(=O)c1cnc2cccnn12)c1cc2cccc(Cl)c2c(=O)n1-c1ccc(F)cc1
IC50 (PIK3CD (Human)): < 100 nM

C[C@H](NC(=O)c1c(N)nn2cccnc12)c1cc2cccc(C#CCN)c2c(=O)n1-c1ccccc1
IC50 (PIK3CG (human)): 100 to 1000 nM | IC50 (PIK3CD (Human)): 100 to 1000 nM

C[C@H](NC(=O)c1nc(-c2cccc(S(C)(=O)=O)c2)cnc1N)c1cc2cccc(Cl)c2c(=O)n1-c1ccccc1
IC50 (PIK3CG (human)): 100 to 1000 nM | IC50 (PIK3CD (Human)): 100 to 1000 nM

C[C@H](NC(=O)c1nc(-c2cn[nH]c2)cnc1N)c1cc2cccc(Cl)c2c(=O)n1-c1ccccc1
IC50 (PIK3CG (human)): 100 to 1000 nM | IC50 (PIK3CD (Human)): < 100 nM

Cc1cccc2cc([C@H](C)NC(=O)c3c(N)nn4cccnc34)n(-c3ccccc3)c(=O)c12
IC50 (PIK3CG (human)): 100 to 1000 nM | IC50 (PIK3CD (Human)): < 100 nM

C[C@H](NC(=O)c1cncc2cccnc12)c1cc2cccc(Cl)c2c(=O)n1-c1ccc(F)cc1
IC50 (PIK3CD (Human)): < 100 nM

C=CC(=O)NCCC#Cc1cccc2cc([C@H](C)NC(=O)c3c(N)nn4cccnc34)n(-c3ccccc3)c(=O)c12
IC50 (PIK3CG (human)): 100 to 1000 nM | IC50 (PIK3CD (Human)): < 100 nM

C[C@H](NC(=O)c1c(N)nn2cccnc12)c1cc2cccc(Cl)c2c(=O)n1-c1ccc(F)c(F)c1
IC50 (PIK3CG (human)): < 100 nM | IC50 (PIK3CD (Human)): 100 to 1000 nM

C[C@H](NC(=O)c1c(N)nn2cccnc12)c1cc2cccc(C#CCCN)c2c(=O)n1-c1ccccc1
IC50 (PIK3CG (human)): 100 to 1000 nM | IC50 (PIK3CD (Human)): 100 to 1000 nM

C[C@H](NC(=O)c1cnn2cccnc12)c1cc2cccc(C#CCNC(=O)[C@@H]3CCC(=O)N3)c2c(=O)n1-c1ccccc1
IC50 (PIK3CG (human)): 100 to 1000 nM | IC50 (PIK3CD (Human)): 100 to 1000 nM

C[C@H](NC(=O)c1nc(-c2cccc(S(=O)(=O)NC(C)(C)C)c2)cnc1N)c1cc2cccc(Cl)c2c(=O)n1-c1ccccc1
IC50 (PIK3CG (human)): 100 to 1000 nM | IC50 (PIK3CD (Human)): < 100 nM
